# Values quoted from earlier work, collected in patent publication US8906391B2, “Thermorod for active drug release and method for manufacturing the same” (Korea Sangsa Co., Ltd., priority 2008, dated 2014).
# Conditions: characteristics of the drugs, Table 1
row,Hydrophobicity (Log P),SMILES
1,3.06,CC[C@H]1OC(=O)[C@H](C)[C@@H](O[C@H]2C[C@@](C)(OC)[C@@H](O)[C@H](C)O2)[C@H](C)[C@@H](O[C@@H]2O[C@H](C)C[C@H](N(C)C)[C@H]2O)[C@](C)(O)C[C@@H](C)C(=O)[C@H](C)[C@@H](O)[C@]1(C)O [Erythromycin]
2,4.258,CC(=O)O[C@@]12CO[C@@H]1C[C@H](O)[C@@]1(C)C(=O)[C@H](O)C3=C(C)[C@@H](OC(=O)[C@H](O)[C@@H](NC(=O)OC(C)(C)C)c4ccccc4)C[C@@](O)([C@@H](OC(=O)c4ccccc4)[C@H]21)C3(C)C [Docetaxel]
3,0.917,CC(=O)Nc1ccc(O)cc1 [Acetaminophen]
4,5.029,CC(=O)O[C@H]1C(=O)[C@@]2(C)[C@H]([C@H](OC(=O)c3ccccc3)[C@]3(O)C[C@H](OC(=O)[C@H](O)[C@@H](NC(=O)c4ccccc4)c4ccccc4)C(C)=C1C3(C)C)[C@]1(OC(C)=O)CO[C@@H]1C[C@@H]2O [Paclitaxel]
